Experimental data reported in ChEMBL document CHEMBL5625250, “Discovery of novel flavonoid-based CDK9 degraders for prostate cancer treatment via a PROTAC strategy” (Eur J Med Chem, 2023).
Converted amounts (≈) assume the structure as drawn. The source made the active and inactive calls. No cut-off for these calls is given here.

Key:
[1] = molecular target: T1, Cyclin-dependent kinase 9 (Homo sapiens, UniProt P50750); assay: Inhibition of CDK9 (unknown origin) at 20 nM in presence of ATP by ADP-Glo kinase assay relative to control
[2] = molecular target: T2, Protein cereblon/Cyclin-dependent kinase 9 (Homo sapiens, UniProt P50750+Q96SW2); assay: PROTAC activity at CRBN/CDK9 in human 22Rv1 cells assessed as degradation of CDK9 protein at 100 nM incubated for 12 hrs by Western blotting analysis; format: cell-based
Target sequence in this assay (P50750 whole entry, looked up): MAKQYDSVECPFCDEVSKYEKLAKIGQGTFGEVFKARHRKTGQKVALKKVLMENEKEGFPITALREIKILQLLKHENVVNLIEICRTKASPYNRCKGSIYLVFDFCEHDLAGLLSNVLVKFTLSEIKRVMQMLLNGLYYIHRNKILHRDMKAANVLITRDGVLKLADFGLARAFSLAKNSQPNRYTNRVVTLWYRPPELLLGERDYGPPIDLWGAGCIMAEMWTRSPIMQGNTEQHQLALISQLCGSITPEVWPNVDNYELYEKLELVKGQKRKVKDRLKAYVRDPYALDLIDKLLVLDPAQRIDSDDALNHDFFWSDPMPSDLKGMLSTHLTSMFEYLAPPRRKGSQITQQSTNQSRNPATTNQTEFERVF
Target sequence in this assay (Q96SW2 whole entry, looked up): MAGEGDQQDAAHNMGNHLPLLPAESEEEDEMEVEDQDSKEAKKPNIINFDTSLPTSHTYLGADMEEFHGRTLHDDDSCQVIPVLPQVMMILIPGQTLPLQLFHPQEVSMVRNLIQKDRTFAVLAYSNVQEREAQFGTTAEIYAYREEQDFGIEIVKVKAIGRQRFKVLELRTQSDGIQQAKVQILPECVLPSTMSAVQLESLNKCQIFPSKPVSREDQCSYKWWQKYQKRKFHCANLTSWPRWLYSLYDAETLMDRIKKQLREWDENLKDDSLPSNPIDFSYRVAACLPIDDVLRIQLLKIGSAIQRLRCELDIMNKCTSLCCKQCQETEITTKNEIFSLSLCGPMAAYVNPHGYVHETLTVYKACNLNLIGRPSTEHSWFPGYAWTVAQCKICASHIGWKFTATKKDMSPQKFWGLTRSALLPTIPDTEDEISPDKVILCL

[3] = Solubility of the compound in water at pH 7.4 by shake flask method; format: physicochemical
CWR22R [4] = assay: Antiproliferative activity against human 22Rv1 cells assessed as reduction in cell viability incubated for 72 hrs by SRB assay; format: functional, cell-based; conditions: 22Rv1, 72 h
[5] = Solubility of the compound in water at pH 6.0 by shake flask method; format: physicochemical
[6] = molecular target: T2, Protein cereblon/Cyclin-dependent kinase 9; assay: PROTAC activity at CRBN/CDK9 in human 22Rv1 cells assessed as reduction in cyclin T1 expression at 1.5 uM incubated for 24 hrs by Western blotting analysis; format: cell-based
Target sequence in this assay (P50750 whole entry, looked up): as the sequence (P50750 whole entry, looked up) above
Target sequence in this assay (Q96SW2 whole entry, looked up): as the sequence (Q96SW2 whole entry, looked up) above

[7] = molecular target: T1, Cyclin-dependent kinase 9; assay: Inhibition of CDK9 (unknown origin) in presence of ATP by ADP-Glo kinase assay
[8] = molecular target: T2, Protein cereblon/Cyclin-dependent kinase 9; assay: PROTAC activity at CRBN/CDK9 in human 22Rv1 cells assessed as degradation of CDK9 protein at 20 nM incubated for 12 hrs by Western blotting analysis relative to control; format: cell-based
Target sequence in this assay (P50750 whole entry, looked up): as the sequence (P50750 whole entry, looked up) above
Target sequence in this assay (Q96SW2 whole entry, looked up): as the sequence (Q96SW2 whole entry, looked up) above

[9] = Half life in Sprague-Dawley rat at 2 mg/kg, iv by LC-MS/MS analysis; format: ADME, organism-based; conditions: in vivo
[10] = Toxicity in BALB/c mouse xenografted with human 22Rv1 cells assessed as mortality at 10 to 20 mg/kg, iv administered for 20 days; format: organism-based, CWR22R; conditions: in vivo, 480 h, dose 10-20 mg/kg, time 20 day
CWR22R [11] = assay: In vivo degradation of c-Myc expression in human 22Rv1 cells xenografted in BALB/c mouse tumor at 20 mg/kg, iv administered for 18 days by Western blotting analysis; format: functional, organism-based; conditions: time 18.0 day
[12] = molecular target: T2, Protein cereblon/Cyclin-dependent kinase 9; assay: PROTAC activity at CRBN/CDK9 in human 22Rv1 cells assessed as degradation of CDK9 protein at 500 nM incubated for 12 hrs by Western blotting analysis; format: cell-based
Target sequence in this assay (P50750 whole entry, looked up): as the sequence (P50750 whole entry, looked up) above
Target sequence in this assay (Q96SW2 whole entry, looked up): as the sequence (Q96SW2 whole entry, looked up) above

[13] = molecular target: T2, Protein cereblon/Cyclin-dependent kinase 9; assay: PROTAC activity at CRBN/CDK9 in human 22Rv1 cells assessed as reduction in cyclin T1 expression at 0.1 to 1.5 uM incubated for 24 hrs by Western blotting analysis; format: cell-based; conditions: dose 0.1-1.5 µM
Target sequence in this assay (P50750 whole entry, looked up): as the sequence (P50750 whole entry, looked up) above
Target sequence in this assay (Q96SW2 whole entry, looked up): as the sequence (Q96SW2 whole entry, looked up) above

CWR22R [14] = assay: In vivo degradation of Mcl-1 expression in human 22Rv1 cells xenografted in BALB/c mouse tumor at 20 mg/kg, iv administered for 18 days by Western blotting analysis; format: functional, organism-based; conditions: time 18.0 day
[15] = molecular target: T2, Protein cereblon/Cyclin-dependent kinase 9; assay: PROTAC activity at CRBN/CDK9 in human 22Rv1 cells assessed as degradation of CDK9 protein at 0.1 uM incubated for 12 hrs in presence of LWT-111 by Western blotting analysis; format: cell-based
Target sequence in this assay (P50750 whole entry, looked up): as the sequence (P50750 whole entry, looked up) above
Target sequence in this assay (Q96SW2 whole entry, looked up): as the sequence (Q96SW2 whole entry, looked up) above

CWR22R [16] = assay: Antitumor activity against human 22Rv1 cells xenografted in BALB/c mouse assessed as tumor growth inhibition at 20 mg/kg, iv administered for 20 days relative to control; format: functional; conditions: 22Rv1, 480 h, time 20 day, read-out: TGI
CWR22R [17] = assay: In vivo degradation of c-Myc protein level in human 22Rv1 cells xenografted in BALB/c mouse tumor at 20 mg/kg, iv administered for 18 days by immunohistochemistry analysis; format: functional, organism-based; conditions: time 18.0 day
[18] = molecular target: T2, Protein cereblon/Cyclin-dependent kinase 9; assay: PROTAC activity at CRBN/CDK9 in human 22Rv1 cells assessed as reduction in RNAPII-ser 2 phosphorylation incubated for 24 hrs by Western blotting analysis; format: cell-based; conditions: dose 0.1-1.5 µM
CWR22R [19] = assay: Antitumor activity against human 22Rv1 cells xenografted in BALB/c mouse assessed as tumor growth inhibition at 10 mg/kg, iv administered for 20 days relative to control; format: functional; conditions: 22Rv1, 480 h, time 20 day, read-out: TGI
[20] = molecular target: T2, Protein cereblon/Cyclin-dependent kinase 9; assay: PROTAC activity at CRBN/CDK9 in human 22Rv1 cells assessed as degradation of CDK9 protein at 100 nM incubated for 12 hrs by Western blotting analysis relative to control; format: cell-based
CWR22R [21] = assay: In vivo degradation of Ki67 protein level in human 22Rv1 cells xenografted in BALB/c mouse tumor at 20 mg/kg, iv administered for 18 days by immunohistochemistry analysis; format: functional, organism-based; conditions: time 18.0 day
[22] = molecular target: Cyclin-dependent kinase 7 (Homo sapiens) (UniProt P50613); assay: Induction of CDK7 protein degradation in human 22Rv1 cells at 500 nM incubated for 12 hrs by Western blotting analysis; format: cell-based
[23] = molecular target: Cyclin-dependent kinase 5 (Homo sapiens) (UniProt Q00535); assay: Induction of CDK5 protein degradation in human 22Rv1 cells at 500 nM incubated for 12 hrs by Western blotting analysis; format: cell-based
[24] = Metabolic stability in human liver microsome assessed as half life at 10 uM by LC-MS/MS analysis; format: ADME; conditions: liver microsomes
[25] = molecular target: Cyclin-dependent kinase 2 (Homo sapiens) (UniProt P24941); assay: Induction of CDK2 protein degradation in human 22Rv1 cells at 500 nM incubated for 12 hrs by Western blotting analysis; format: cell-based
CWR22R [26] = assay: In vivo degradation of CDK9 expression in human 22Rv1 cells xenografted in BALB/c mouse tumor at 20 mg/kg, iv administered for 18 days by Western blotting analysis; format: functional, organism-based; conditions: time 18.0 day
CWR22R [27] = assay: In vivo degradation of ARv7 expression in human 22Rv1 cells xenografted in BALB/c mouse tumor at 20 mg/kg, iv administered for 18 days by Western blotting analysis; format: functional, organism-based; conditions: time 18.0 day
CWR22R [28] = assay: Antitumor activity against human 22Rv1 cells assessed as complete reduction in colony formation incubated for 2 weeks by crystal violet staining based assay; format: functional, cell-based; conditions: dose 7.8-62.5 nM
[29] = molecular target: Cyclin-dependent kinase 6 (Homo sapiens) (UniProt Q00534); assay: Induction of CDK6 protein degradation in human 22Rv1 cells at 500 nM incubated for 12 hrs by Western blotting analysis; format: cell-based
[30] = molecular target: T2, Protein cereblon/Cyclin-dependent kinase 9; assay: PROTAC activity at CRBN/CDK9 in human 22Rv1 cells assessed as reduction in c-Myc expression incubated for 24 hrs by Western blotting analysis; format: cell-based; conditions: dose 0.1-1.5 µM
CWR22R [31] = assay: Antiproliferative activity against human 22Rv1 cells assessed as reduction in colony formation incubated for 2 weeks by crystal violet staining based assay; format: functional, cell-based; conditions: dose 7.8-62.5 nM
CWR22R [32] = assay: Antitumor activity against human 22Rv1 cells assessed as complete reduction in colony formation at 60 nM incubated for 2 weeks by crystal violet staining based assay; format: functional; design: scale not given: the % may be the effect or the level left
[33] = molecular target: T2, Protein cereblon/Cyclin-dependent kinase 9; assay: PROTAC activity at CRBN/CDK9 in human 22Rv1 cells assessed as degradation of CDK9 protein at 100 nM by Western blotting analysis; format: cell-based; conditions: time 2-24 hrs, TDE = time-dependent effect
[34] = molecular target: T2, Protein cereblon/Cyclin-dependent kinase 9; assay: PROTAC activity at CRBN/CDK9 in human 22Rv1 cells assessed as degradation of CDK9 protein incubated for 12 hrs by Western blotting analysis; format: cell-based
[35] = AUC in Sprague-Dawley rat at 2 mg/kg, iv by LC-MS/MS analysis; format: ADME, organism-based; conditions: in vivo
[36] = molecular target: T2, Protein cereblon/Cyclin-dependent kinase 9; assay: PROTAC activity at CRBN/CDK9 in human 22Rv1 cells assessed as degradation of CDK9 protein at 0.1 uM incubated for 12 hrs in presence of thalidomide by Western blotting analysis; format: cell-based
[37] = Toxicity in BALB/c mouse xenografted with human 22Rv1 cells assessed as change in body weight at 10 mg/kg, iv administered for 20 days relative to control; format: organism-based, CWR22R; conditions: in vivo, 480 h, time 20 day
[38] = molecular target: Cyclin-dependent kinase 4 (Homo sapiens) (UniProt P11802); assay: Induction of CDK4 protein degradation in human 22Rv1 cells at 500 nM incubated for 12 hrs by Western blotting analysis; format: cell-based
[39] = molecular target: T2, Protein cereblon/Cyclin-dependent kinase 9; assay: PROTAC activity at CRBN/CDK9 in human 22Rv1 cells assessed as degradation of CDK9 protein at 0.1 uM incubated for 12 hrs in presence of MG132 by Western blotting analysis; format: cell-based
CWR22R [40] = assay: In vivo degradation of CDK9 protein level in human 22Rv1 cells xenografted in BALB/c mouse tumor at 20 mg/kg, iv administered for 18 days by immunohistochemistry analysis; format: functional, organism-based; conditions: time 18.0 day
[41] = Apparent volume of distribution in Sprague-Dawley rat at 2 mg/kg, iv by LC-MS/MS analysis; format: ADME, organism-based; conditions: in vivo, read-out: Vz
[42] = molecular target: T2, Protein cereblon/Cyclin-dependent kinase 9; assay: PROTAC activity at CRBN/CDK9 in human 22Rv1 cells assessed as reduction in Mcl-1 expression incubated for 24 hrs by Western blotting analysis; format: cell-based; conditions: dose 0.1-1.5 µM
[43] = Toxicity in BALB/c mouse xenografted with human 22Rv1 cells assessed as change in body weight at 20 mg/kg, iv administered for 20 days relative to control; format: organism-based, CWR22R; conditions: in vivo, 480 h, time 20 day

T1 sequence (P50750 whole entry): as the sequence (P50750 whole entry, looked up) above
Chain of Cyclin-dependent kinase 5 (Homo sapiens) (Q00535 whole entry, looked up): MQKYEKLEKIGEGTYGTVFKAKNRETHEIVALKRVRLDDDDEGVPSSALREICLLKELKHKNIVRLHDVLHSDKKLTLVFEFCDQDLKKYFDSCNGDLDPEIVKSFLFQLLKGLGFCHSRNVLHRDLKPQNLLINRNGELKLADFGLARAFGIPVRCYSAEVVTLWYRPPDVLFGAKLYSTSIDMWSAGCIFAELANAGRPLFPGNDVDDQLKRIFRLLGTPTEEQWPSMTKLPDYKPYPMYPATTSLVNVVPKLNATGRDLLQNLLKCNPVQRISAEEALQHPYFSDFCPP
Chain of Cyclin-dependent kinase 6 (Homo sapiens) (Q00534 whole entry): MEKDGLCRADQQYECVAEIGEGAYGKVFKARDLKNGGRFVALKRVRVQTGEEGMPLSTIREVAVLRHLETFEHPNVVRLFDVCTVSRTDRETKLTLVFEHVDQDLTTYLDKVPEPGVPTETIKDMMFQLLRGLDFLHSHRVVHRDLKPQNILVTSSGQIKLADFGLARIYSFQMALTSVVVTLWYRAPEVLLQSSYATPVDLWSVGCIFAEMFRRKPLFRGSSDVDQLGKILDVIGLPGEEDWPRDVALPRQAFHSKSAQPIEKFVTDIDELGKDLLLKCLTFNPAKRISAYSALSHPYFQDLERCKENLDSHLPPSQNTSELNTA
Chain of Cyclin-dependent kinase 4 (Homo sapiens) (P11802 whole entry): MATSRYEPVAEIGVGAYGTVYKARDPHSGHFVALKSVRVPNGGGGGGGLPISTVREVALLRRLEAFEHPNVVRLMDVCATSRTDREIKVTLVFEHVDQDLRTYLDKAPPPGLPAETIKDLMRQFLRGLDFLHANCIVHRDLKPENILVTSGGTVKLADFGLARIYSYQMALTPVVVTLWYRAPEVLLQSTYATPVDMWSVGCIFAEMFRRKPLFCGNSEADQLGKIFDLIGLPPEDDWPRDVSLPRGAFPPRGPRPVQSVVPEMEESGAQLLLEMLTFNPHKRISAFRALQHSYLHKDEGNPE
Chain of Cyclin-dependent kinase 7 (Homo sapiens) (P50613 whole entry): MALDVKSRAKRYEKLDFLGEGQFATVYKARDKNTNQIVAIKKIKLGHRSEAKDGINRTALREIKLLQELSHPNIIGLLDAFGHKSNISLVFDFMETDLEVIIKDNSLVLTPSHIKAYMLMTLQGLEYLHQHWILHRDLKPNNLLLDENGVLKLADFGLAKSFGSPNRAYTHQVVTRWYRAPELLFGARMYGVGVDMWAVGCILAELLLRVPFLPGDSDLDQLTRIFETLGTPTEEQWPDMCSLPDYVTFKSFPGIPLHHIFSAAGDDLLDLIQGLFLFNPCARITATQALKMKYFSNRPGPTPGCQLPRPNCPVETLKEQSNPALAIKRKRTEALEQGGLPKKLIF

COc1cc(O)c2c(=O)cc(-c3ccc(N4CCN(C(=O)CCCCCCCCCOc5cccc6c5C(=O)N(C5CCC(=O)NC5=O)C6=O)CC4)cc3)oc2c1C1=CCN(C)CC1 (stereo not drawn)
inhibition [1]: 34.2% | Activity [2]: Active | solubility thermodynamic [3]: < 10 µg/mL | IC50 (CWR22R [4]): 120 nM | solubility thermodynamic [5]: < 10 µg/mL

COc1cc(O)c2c(=O)cc(-c3ccc(N4CCN(C(=O)CCCCCCCOc5cccc6c5C(=O)N(C5CCC(=O)NC5=O)C6=O)CC4)cc3)oc2c1C1=CCN(C)CC1 (stereo not drawn)
inhibition [1]: 69.5% | solubility thermodynamic [3]: < 10 µg/mL | IC50 (CWR22R [4]): 1810 nM | solubility thermodynamic [5]: < 10 µg/mL

COc1cc(O)c2c(=O)cc(-c3ccc(N4CCN(C)CC4)cc3)oc2c1C1=CCN(C)CC1
inhibition [1]: 69.2% | IC50 (CWR22R [4]): 1250 nM | Activity [6]: inactive | IC50 [7]: 66.7 nM

COc1cc(O)c2c(=O)cc(-c3ccc(N4CCN(C(=O)C5CCN(c6ccc7c(c6)C(=O)N(C6CCC(=O)NC6=O)C7=O)CC5)CC4)cc3)oc2c1C1=CCN(C)CC1 (stereo not drawn)
inhibition [1]: 90.4% | Activity [8]: > 50% | solubility thermodynamic [3]: 21 µg/mL (≈ 25.8 µM) | IC50 (CWR22R [4]): 20 nM | solubility thermodynamic [5]: < 10 µg/mL

COc1cc(O)c2c(=O)cc(-c3ccc(N4CCN(CC5CCN(c6ccc7c(c6)C(=O)N(C6CCC(=O)NC6=O)C7=O)CC5)CC4)cc3)oc2c1C1=CCN(C)CC1 (stereo not drawn)
half-life [9]: 11.1 h | inhibition [1]: 85.6% | Activity [10]: Non-Toxic | Activity (CWR22R [11]): Active | Activity [12]: 100% | Activity [13]: Active | Activity (CWR22R [14]): Active | Activity [15]: inactive | inhibition in vivo at 20 mg/kg (CWR22R [16]): 75.1% | Activity (CWR22R [17]): Active | Activity [18]: Dose-Dependent Effect | inhibition in vivo at 10 mg/kg (CWR22R [19]): 65.7% | Activity [20]: 80% | Activity (CWR22R [21]): Active | Activity [22]: inactive | Activity [23]: inactive | solubility thermodynamic [3]: 53 µg/mL (≈ 66.2 µM) | half-life at 10 µM [24]: 1.62 h | Activity [25]: inactive | Activity (CWR22R [26]): Active | Activity (CWR22R [27]): Active | Activity (CWR22R [28]): Dose-Dependent Effect | Activity [29]: inactive | Activity [30]: Dose-Dependent Effect | Activity (CWR22R [31]): Dose-Dependent Effect | Activity (CWR22R [32]): 100% | IC50 (CWR22R [4]): 60 nM | solubility thermodynamic [5]: 125 µg/mL (≈ 156 µM) | Activity [33]: Tde | Activity [34]: Dose-Dependent Effect | DC50 [34]: 43 nM | AUC [35]: 681 ng·h/mL | Activity [36]: inactive | Activity [37]: 12.5% | Activity [38]: inactive | Activity [39]: inactive | Activity (CWR22R [40]): Active | Vd [41]: 22.6 L/kg | Activity [42]: Dose-Dependent Effect | IC50 [7]: 3.3 nM | Activity [43]: 15.3%

COc1cc(O)c2c(=O)cc(-c3ccc(N4CCN(CC5CCN(c6cccc7c6C(=O)N(C6CCC(=O)NC6=O)C7=O)CC5)CC4)cc3)oc2c1C1=CCN(C)CC1 (stereo not drawn)
inhibition [1]: 89.3% | solubility thermodynamic [3]: 41 µg/mL (≈ 51.2 µM) | IC50 (CWR22R [4]): 70 nM | solubility thermodynamic [5]: 193 µg/mL (≈ 241 µM)
